# Measured values published in ChEMBL document CHEMBL1671852, “In vitro activities of linezolid against clinical isolates of Mycobacterium tuberculosis complex isolated in Taiwan over 10 years” (2008).
# Test system: Mycobacterium tuberculosis
# Assay: Antibacterial activity against Mycobacterium tuberculosis H37Rv by agar proportion method
# Type: functional
smiles,measurement,value
CC(=O)NC[C@H]1CN(c2ccc(N3CCOCC3)c(F)c2)C(=O)O1 [LINEZOLID],MIC,0.5 µg/mL
